Reference: the NIST ThermoML archive (doi:10.1016/j.fluid.2004.09.013)
± gives the expanded uncertainty stated by the source.

Settings: for mass density: Fluid (supercritical or subcritical phases), Vibrating tube method; for vapor or sublimation pressure: Liquid

C/C=C\C [(Z)-2-butene]
mass density (273.24 K, 530 kPa): 644.99 ± 1.3 kg/m3 | mass density (273.24 K, 5019 kPa): 650.08 ± 1.3 kg/m3 | mass density (273.24 K, 10002 kPa): 655.33 ± 1.3 kg/m3 | mass density (273.24 K, 15013 kPa): 660.23 ± 1.4 kg/m3 | mass density (273.24 K, 19996 kPa): 664.79 ± 1.4 kg/m3 | mass density (273.24 K, 24988 kPa): 669.08 ± 1.4 kg/m3 | mass density (273.24 K, 29997 kPa): 673.15 ± 1.4 kg/m3 | mass density (273.24 K, 35005 kPa): 677.01 ± 1.5 kg/m3 | mass density (273.24 K, 39991 kPa): 680.66 ± 1.5 kg/m3 | mass density (278.25 K, 531 kPa): 639.3 ± 1.3 kg/m3 | mass density (278.25 K, 4987 kPa): 644.61 ± 1.3 kg/m3 | mass density (278.25 K, 10000 kPa): 650.13 ± 1.3 kg/m3 | mass density (278.25 K, 15004 kPa): 655.23 ± 1.4 kg/m3 | mass density (278.25 K, 19984 kPa): 659.97 ± 1.4 kg/m3 | mass density (278.25 K, 25004 kPa): 664.45 ± 1.4 kg/m3 | mass density (278.25 K, 30003 kPa): 668.65 ± 1.4 kg/m3 | mass density (278.25 K, 34993 kPa): 672.62 ± 1.4 kg/m3 | mass density (278.25 K, 39994 kPa): 676.39 ± 1.5 kg/m3 | mass density (283.26 K, 528 kPa): 633.56 ± 1.3 kg/m3 | mass density (283.26 K, 5005 kPa): 639.17 ± 1.3 kg/m3 | mass density (283.26 K, 9984 kPa): 644.91 ± 1.3 kg/m3 | mass density (283.26 K, 14999 kPa): 650.24 ± 1.4 kg/m3 | mass density (283.26 K, 19995 kPa): 655.17 ± 1.4 kg/m3 | mass density (283.26 K, 25010 kPa): 659.81 ± 1.4 kg/m3 | mass density (283.26 K, 29992 kPa): 664.14 ± 1.4 kg/m3 | mass density (283.26 K, 35004 kPa): 668.25 ± 1.4 kg/m3 | mass density (283.26 K, 39997 kPa): 672.15 ± 1.5 kg/m3 | mass density (288.27 K, 531 kPa): 627.75 ± 1.3 kg/m3 | mass density (288.27 K, 4995 kPa): 633.64 ± 1.3 kg/m3 | mass density (288.27 K, 10005 kPa): 639.69 ± 1.3 kg/m3 | mass density (288.27 K, 14999 kPa): 645.22 ± 1.3 kg/m3 | mass density (288.27 K, 20014 kPa): 650.37 ± 1.4 kg/m3 | mass density (288.27 K, 25005 kPa): 655.16 ± 1.4 kg/m3 | mass density (288.27 K, 29991 kPa): 659.64 ± 1.4 kg/m3 | mass density (288.27 K, 34992 kPa): 663.87 ± 1.4 kg/m3 | mass density (288.27 K, 40003 kPa): 667.9 ± 1.5 kg/m3 | vapor or sublimation pressure (290.72 K): 166.5 ± 1.1 kPa | mass density (293.28 K, 532 kPa): 621.87 ± 1.3 kg/m3 | mass density (293.28 K, 4990 kPa): 628.07 ± 1.3 kg/m3 | mass density (293.28 K, 10006 kPa): 634.4 ± 1.3 kg/m3 | mass density (293.28 K, 20011 kPa): 645.53 ± 1.4 kg/m3 | mass density (293.28 K, 25006 kPa): 650.48 ± 1.4 kg/m3 | mass density (293.28 K, 30000 kPa): 655.14 ± 1.4 kg/m3 | mass density (293.28 K, 34996 kPa): 659.52 ± 1.4 kg/m3 | mass density (293.28 K, 39986 kPa): 663.65 ± 1.5 kg/m3 | mass density (293.29 K, 14995 kPa): 640.16 ± 1.3 kg/m3 | vapor or sublimation pressure (297.95 K): 212.17 ± 1.4 kPa | mass density (298.29 K, 29993 kPa): 650.63 ± 1.4 kg/m3 | mass density (298.3 K, 528 kPa): 615.89 ± 1.2 kg/m3 | mass density (298.3 K, 5009 kPa): 622.46 ± 1.3 kg/m3 | mass density (298.3 K, 9991 kPa): 629.06 ± 1.3 kg/m3 | mass density (298.3 K, 14998 kPa): 635.11 ± 1.3 kg/m3 | mass density (298.3 K, 20004 kPa): 640.67 ± 1.4 kg/m3 | mass density (298.3 K, 24996 kPa): 645.82 ± 1.4 kg/m3 | mass density (298.3 K, 34987 kPa): 655.14 ± 1.4 kg/m3 | mass density (298.3 K, 40002 kPa): 659.43 ± 1.5 kg/m3 | mass density (303.31 K, 568 kPa): 609.88 ± 1.2 kg/m3 | mass density (303.31 K, 4986 kPa): 616.72 ± 1.3 kg/m3 | mass density (303.31 K, 9987 kPa): 623.69 ± 1.3 kg/m3 | mass density (303.31 K, 15011 kPa): 630.03 ± 1.3 kg/m3 | mass density (303.31 K, 20004 kPa): 635.8 ± 1.3 kg/m3 | mass density (303.31 K, 25003 kPa): 641.15 ± 1.4 kg/m3 | mass density (303.31 K, 29993 kPa): 646.12 ± 1.4 kg/m3 | mass density (303.31 K, 34986 kPa): 650.78 ± 1.4 kg/m3 | mass density (303.31 K, 40003 kPa): 655.2 ± 1.5 kg/m3 | vapor or sublimation pressure (306.92 K): 280.95 ± 1.9 kPa | mass density (308.32 K, 610 kPa): 603.77 ± 1.2 kg/m3 | mass density (308.32 K, 5003 kPa): 610.96 ± 1.2 kg/m3 | mass density (308.32 K, 9990 kPa): 618.26 ± 1.3 kg/m3 | mass density (308.32 K, 14985 kPa): 624.84 ± 1.3 kg/m3 | mass density (308.32 K, 19996 kPa): 630.86 ± 1.3 kg/m3 | mass density (308.32 K, 24991 kPa): 636.41 ± 1.4 kg/m3 | mass density (308.32 K, 29986 kPa): 641.56 ± 1.4 kg/m3 | mass density (308.32 K, 34983 kPa): 646.37 ± 1.4 kg/m3 | mass density (308.32 K, 40002 kPa): 650.92 ± 1.4 kg/m3 | mass density (313.2 K, 842 kPa): 598.01 ± 1.2 kg/m3 | mass density (313.2 K, 25002 kPa): 631.74 ± 1.4 kg/m3 | mass density (313.21 K, 4983 kPa): 605.15 ± 1.2 kg/m3 | mass density (313.21 K, 9999 kPa): 612.86 ± 1.3 kg/m3 | mass density (313.21 K, 14998 kPa): 619.73 ± 1.3 kg/m3 | mass density (313.21 K, 19993 kPa): 625.98 ± 1.3 kg/m3 | mass density (313.21 K, 29990 kPa): 637.05 ± 1.4 kg/m3 | mass density (313.21 K, 34989 kPa): 642.02 ± 1.4 kg/m3 | mass density (313.21 K, 39990 kPa): 646.68 ± 1.4 kg/m3 | vapor or sublimation pressure (316.39 K): 369.5 ± 2.4 kPa | mass density (318.21 K, 898 kPa): 591.77 ± 1.2 kg/m3 | mass density (318.21 K, 4989 kPa): 599.26 ± 1.2 kg/m3 | mass density (318.21 K, 9999 kPa): 607.36 ± 1.2 kg/m3 | mass density (318.21 K, 14989 kPa): 614.54 ± 1.3 kg/m3 | mass density (318.21 K, 19986 kPa): 621.05 ± 1.3 kg/m3 | mass density (318.21 K, 24990 kPa): 627.03 ± 1.4 kg/m3 | mass density (318.21 K, 30002 kPa): 632.56 ± 1.4 kg/m3 | mass density (318.21 K, 34994 kPa): 637.68 ± 1.4 kg/m3 | mass density (318.21 K, 39987 kPa): 642.47 ± 1.4 kg/m3 | mass density (323.21 K, 965 kPa): 585.41 ± 1.2 kg/m3 | mass density (323.21 K, 4984 kPa): 593.22 ± 1.2 kg/m3 | mass density (323.21 K, 9985 kPa): 601.76 ± 1.2 kg/m3 | mass density (323.21 K, 14986 kPa): 609.3 ± 1.3 kg/m3 | mass density (323.21 K, 20004 kPa): 616.11 ± 1.3 kg/m3 | mass density (323.21 K, 25000 kPa): 622.31 ± 1.3 kg/m3 | mass density (323.21 K, 29993 kPa): 628.01 ± 1.4 kg/m3 | mass density (323.21 K, 34993 kPa): 633.32 ± 1.4 kg/m3 | mass density (323.21 K, 40000 kPa): 638.29 ± 1.4 kg/m3 | vapor or sublimation pressure (326.09 K): 483.32 ± 3.1 kPa | mass density (328.21 K, 14983 kPa): 604.03 ± 1.3 kg/m3 | mass density (328.21 K, 25010 kPa): 617.59 ± 1.3 kg/m3 | mass density (328.21 K, 34998 kPa): 628.95 ± 1.4 kg/m3 | mass density (328.21 K, 40002 kPa): 634.07 ± 1.4 kg/m3 | mass density (328.22 K, 1031 kPa): 578.91 ± 1.2 kg/m3 | mass density (328.22 K, 4985 kPa): 587.11 ± 1.2 kg/m3 | mass density (328.22 K, 9992 kPa): 596.13 ± 1.2 kg/m3 | mass density (328.22 K, 19995 kPa): 611.12 ± 1.3 kg/m3 | mass density (328.22 K, 29991 kPa): 623.48 ± 1.4 kg/m3 | vapor or sublimation pressure (331.25 K): 549.64 ± 3.6 kPa | mass density (333.22 K, 1102 kPa): 572.28 ± 1.2 kg/m3 | mass density (333.22 K, 4993 kPa): 580.89 ± 1.2 kg/m3 | mass density (333.22 K, 10002 kPa): 590.44 ± 1.2 kg/m3
